Target: T1, human ferroportin (Homo sapiens, UniProt Q9NP59)
T1 construct: luciferase reporter (probably NanoLuc: read with the Nano-Glo Luciferase Assay System); expressed in transfected cells; host or cells: CHO cells, stably transfected, doxycycline-inducible expression
T1 sequence (Q9NP59 1-571): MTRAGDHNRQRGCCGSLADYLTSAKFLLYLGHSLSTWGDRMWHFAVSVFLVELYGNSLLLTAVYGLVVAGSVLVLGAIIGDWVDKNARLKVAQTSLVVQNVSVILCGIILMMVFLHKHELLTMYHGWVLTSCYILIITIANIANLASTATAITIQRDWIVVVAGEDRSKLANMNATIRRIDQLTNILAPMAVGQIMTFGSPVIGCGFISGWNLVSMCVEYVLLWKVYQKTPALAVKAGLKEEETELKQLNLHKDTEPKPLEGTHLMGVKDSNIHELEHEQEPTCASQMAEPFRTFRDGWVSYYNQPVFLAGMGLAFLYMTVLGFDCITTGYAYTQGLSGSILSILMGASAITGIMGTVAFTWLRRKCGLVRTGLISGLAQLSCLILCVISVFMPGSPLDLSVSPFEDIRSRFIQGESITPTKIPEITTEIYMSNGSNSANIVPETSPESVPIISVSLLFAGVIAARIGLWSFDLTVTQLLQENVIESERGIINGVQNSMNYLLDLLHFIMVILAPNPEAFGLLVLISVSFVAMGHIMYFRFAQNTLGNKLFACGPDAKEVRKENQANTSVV
Test: In-vitro ferroportin internalization assay (luciferase reporter)
Type: cell-based
Conditions: average pEC50; stably-transfected CHO cell line expressing human ferroportin tagged to a luciferase reporter; 6 h incubation with test compounds
Procedure: The protocol for this assay is generally as described in WO2018/128828, incorporated herein by reference in its entirety. Functional internalization of ferroportin protein was measured using a stably-transfected CHO cell line expressing the human ferroportin tagged to a luciferase reporter. Cells were plated for 24 h in the presence of ferric ammonium citrate (FAC). Ferroportin protein expression was induced with doxycycline for 24 h. The next day, the compounds were added. Test compounds were dissolved in DMSO. Cells were incubated with the test compounds for 6 h, and subsequently luciferase activity was measured using the Nano-Glo Luciferase Assay System and Glomax (Promega, Madison, Wis.).
The average pEC50 was determined for the test compounds.

pEC50	SMILES
7.6	Cc1nc(CCNCCc2nc3c(NCc4ncccc4F)ncnc3s2)[nH]c1C [Compound 55, 2-(2-{[2-(4,5-dimethyl-1H-imidazol-2-yl)ethyl]amino}ethyl)-N-[(3-fluoropyridin-2-yl)methyl]-[1,3]thiazolo[5,4-d]pyrimidin-7-amine]
6.7	Cc1cnc(CCNCCc2nc3c(NCc4ncccc4F)nccc3o2)[nH]1 [Compound 56, N-[(3-fluoropyridin-2-yl)methyl]-2-(2-{[2-(5-methyl-1H-imidazol-2-yl)ethyl]amino}ethyl)-[1,3]oxazolo[4,5-c]pyridin-4-amine]
5.4	Fc1cccnc1CNc1nccc2oc(CCNCCc3ncc(C(F)(F)F)[nH]3)nc12 [Compound 57, N-[(3-fluoropyridin-2-yl)methyl]-2-[2-({2-[5-(trifluoromethyl)-1H-imidazol-2-yl]ethyl}amino)ethyl]-[1,3]oxazolo[4,5-c]pyridin-4-amine]
5.7	Fc1cccnc1CNc1nccc2oc(CCNCCc3ncc[nH]3)nc12 [Compound 58]
6.2	Oc1cc2oc(CCNCCc3nc4ccccc4[nH]3)nc2c(NCc2ncccc2F)n1 [Compound 59, 2-(2-{[2-(1H-1,3-benzodiazol-2-yl)ethyl]amino}ethyl)-4-{[(3-fluoropyridin-2-yl)methyl]amino}-[1,3]oxazolo[4,5-c]pyridin-6-ol]
5.8	Fc1cccnc1CNc1ncnc2sc(CCNCCc3ncc(-c4cccnc4)[nH]3)nc12 [Compound 60, N-[(3-fluoropyridin-2-yl)methyl]-2-[2-({2-[5-(pyridin-3-yl)-1H-imidazol-2-yl]ethyl}amino)ethyl]-[1,3]thiazolo[5,4-d]pyrimidin-7-amine]
6.9	CC(CNCCc1nc2c(NCc3ncccc3F)nccc2o1)c1nc2ccccc2[nH]1 (centres unmarked) [Compound 61, 2-(2-{[2-(1H-1,3-benzodiazol-2-yl)propyl]amino}ethyl)-N-[(3-fluoropyridin-2-yl)methyl]-[1,3]oxazolo[4,5-c]pyridin-4-amine]
7.7	Fc1cccnc1CNc1nccc2oc(CCNCCc3ncc(Cc4ccccc4)[nH]3)nc12 [Compound 62]

Second part, the compound before the results:

SMILES	pEC50
CC(Cc1nc2ccccc2[nH]1)NCCc1nc2c(NCc3ncccc3F)ncnc2s1 (centres unmarked) [Compound 40, 2-(2-{[1-(1H-1,3-benzodiazol-2-yl)propan-2-yl]amino}ethyl)-N-[(3-fluoropyridin-2-yl)methyl]-[1,3]thiazolo[5,4-d]pyrimidin-7-amine]	6.2
CC(CNCCc1nc2c(NCc3ncccc3F)ncnc2s1)c1nc2ccccc2[nH]1 (centres unmarked) [Compound 41, 2-(2-{[2-(1H-1,3-benzodiazol-2-yl)propyl]amino}ethyl)-N-[(3-fluoropyridin-2-yl)methyl]-[1,3]thiazolo[5,4-d]pyrimidin-7-amine]	7.2
Fc1cccnc1CNc1ncnc2sc(CCNCCc3ncc[nH]3)nc12 [Compound 42, N-[(3-fluoropyridin-2-yl)methyl]-2-(2-{[2-(1H-imidazol-2-yl)ethyl]amino}ethyl)-[1,3]thiazolo[5,4-d]pyrimidin-7-amine]	7.3
Fc1cccnc1CNc1ncnc2sc(CCNCCc3ncc(Cc4ccccc4)[nH]3)nc12 [Compound 43, 2-(2-{[2-(5-benzyl-1H-imidazol-2-yl)ethyl]amino}ethyl)-N-[(3-fluoropyridin-2-yl)methyl]-[1,3]thiazolo[5,4-d]pyrimidin-7-amine]	8.4
Oc1ccccc1CCNCCc1nc2c(NCc3ncccc3F)ncnc2s1 [Compound 44, 2-(2-{[2-(7-{[(3-fluoropyridin-2-yl)methyl]amino}-[1,3]thiazolo[5,4-d]pyrimidin-2-yl)ethyl]amino}ethyl)phenol]	4.9
Fc1cccnc1CNc1ncnc2sc(CCNCC(F)c3nc4ccccc4[nH]3)nc12 (centres unmarked) [Compound 45, 2-(2-{[2-(1H-1,3-benzodiazol-2-yl)-2-fluoroethyl]amino}ethyl)-N-[(3-fluoropyridin-2-yl)methyl]-[1,3]thiazolo[5,4-d]pyrimidin-7-amine]	6.4
Cc1cc2nc(CCNCCc3nc4c(NCc5ncccc5F)ncnc4s3)[nH]c2cc1C [Compound 46, 2-(2-{[2-(5,6-dimethyl-1H-1,3-benzodiazol-2-yl)ethyl]amino}ethyl)-N-[(3-fluoropyridin-2-yl)methyl]-[1,3]thiazolo[5,4-d]pyrimidin-7-amine]	7.1
O=C(CCC1(CCc2cn(CCCNC(=O)c3ccc4c(c3)C3(OC4=O)c4ccc(O)cc4Oc4cc(O)ccc43)nn2)N=N1)Nc1ccc2[nH]c(CCNCCc3nc4c(NCc5ncccc5F)ncnc4s3)nc2c1 [Compound 47, N-[3-(4-{2-[3-(2-{[2-(2-{[2-(7-{[(3-fluoropyridin-2-yl)methyl]amino}-[1,3]thiazolo[5,4-d]pyrimidin-2-yl)ethyl]amino}ethyl)-1H-1,3-benzodiazol-5-yl]carbamoyl}ethyl)-3H-diazirin-3-yl]ethyl}-1H-1,2,3-triazol-1-yl)propyl]-3′,6′-dihydroxy-3-oxo-3H-spiro[2-benzofuran-1,9′-xanthene]-6-carboxamide]	5.8
Fc1cccnc1CNc1nccc2oc(CCNCCc3ncc(-c4ccccc4)[nH]3)nc12 [Compound 48, N-[(3-fluoropyridin-2-yl)methyl]-2-(2-{[2-(5-phenyl-1H-imidazol-2-yl)ethyl]amino}ethyl)-[1,3]oxazolo[4,5-c]pyridin-4-amine]	7
Fc1cccnc1CNc1ncnc2sc(CCNCc3nc(-c4ccccc4)c[nH]3)nc12 [Compound 49, N-[(3-fluoropyridin-2-yl)methyl]-2-(2-{[(4-phenyl-1H-imidazol-2-yl)methyl]amino}ethyl)-[1,3]thiazolo[5,4-d]pyrimidin-7-amine]	6.9
OC(CNCCc1nc2c(NCc3ncccc3F)ncnc2s1)c1nc2ccccc2[nH]1 (centres unmarked) [Compound 50, 1-(1H-1,3-benzodiazol-2-yl)-2-{[2-(7-{[(3-fluoropyridin-2-yl)methyl]amino}-[1,3]thiazolo[5,4-d]pyrimidin-2-yl)ethyl]amino}ethan-1-ol]	5.1
Fc1cccnc1CNc1ncnc2sc(CCNCCc3ncc(C4CC4)[nH]3)nc12 [Compound 51, 2-(2-{[2-(5-cyclopropyl-1H-imidazol-2-yl)ethyl]amino}ethyl)-N-[(3-fluoropyridin-2-yl)methyl]-[1,3]thiazolo[5,4-d]pyrimidin-7-amine]	8.2
C[C@H](CNCCc1nc2c(NCc3ncccc3F)ncnc2s1)c1nc2ccccc2[nH]1 [Compound 52, 2-(2-{[(2R)-2-(1H-1,3-benzodiazol-2-yl)propyl]amino}ethyl)-N-[(3-fluoropyridin-2-yl)methyl]-[1,3]thiazolo[5,4-d]pyrimidin-7-amine]	6.6
C[C@@H](CNCCc1nc2c(NCc3ncccc3F)ncnc2s1)c1nc2ccccc2[nH]1 [Compound 53, 2-(2-{[(2S)-2-(1H-1,3-benzodiazol-2-yl)propyl]amino}ethyl)-N-[(3-fluoropyridin-2-yl)methyl]-[1,3]thiazolo[5,4-d]pyrimidin-7-amine]	7.3
Oc1cccc(CNCCc2nc3c(NCc4ncccc4F)nccc3o2)c1 [Compound 54, 3-({[2-(4-{[(3-fluoropyridin-2-yl)methyl]amino}-[1,3]oxazolo[4,5-c]pyridin-2-yl)ethyl]amino}methyl)phenol]	5.1
